According to patent publication US20150087673A1, “METHODS FOR USING AND BIOMARKERS FOR AMPK-ACTIVATING COMPOUNDS” (RIGEL PHARMACEUTICALS, INC., priority 2013, published 2015):

Tested on: AMPK
Experiment: AMPK activation assay (enzyme-linked immunosorbent assay)
Assay type: cell-based
In short: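 Kit-based immunoassay; compounds screened as activators; standard reagents and protocol.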

N#Cc1ccc(CN2CCC(NC(=O)c3ncc(C(=O)N4CCN(Cc5ccc(F)cc5)CC4)cc3CCCNC(=O)CCOCCOCCOCCOCCNC(=O)CCCC[C@@H]3SC[C@@H]4NC(=O)N[C@@H]43)CC2)cc1 [Compound 291, N-(1-(4-cyanobenzyl)piperidin-4-yl)-3-(5,21-dioxo-25-((3aS,4S,6aR)-2-oxohexahydro-1H-thieno[3,4-d]imidazol-4-yl)-8,11,14,17-tetraoxa-4,20-diazapentacosyl)-5-(4-(4-fluorobenzyl)piperazine-1-carbonyl)picolinamide]
EC50: < 500 nM

O=C(NC1CCN(Cc2cc(F)cc(F)c2)CC1)c1ccc(C(=O)N2CC[C@H](Oc3ccc(F)cc3)C2)cn1 [Compound 292, N-(1-(3,5-difluorobenzyl)piperidin-4-yl)-5-((S)-3-(4-fluorophenoxy)pyrrolidine-1-carbonyl)picolinamide]
EC50: < 500 nM

Cc1ccc(OC2CCN(C(=O)c3ccc(C(=O)NC4CCN(Cc5cc(F)cc(F)c5)CC4)nc3)CC2)cc1 [Compound 293, N-(1-(3,5-difluorobenzyl)piperidin-4-yl)-5-(4-(p-tolyloxy)piperidine-1-carbonyl)picolinamide]
EC50: < 500 nM

O=C(NC1CCN(Cc2cc(F)cc(F)c2)CC1)c1ccc(C(=O)N2CCC(Oc3ccc(C(F)(F)F)cc3)CC2)cn1 [Compound 294, N-(1-(3,5-difluorobenzyl)piperidin-4-yl)-5-(4-(4-(trifluoromethyl)phenoxy)piperidine-1-carbonyl)picolinamide]
EC50: < 500 nM

O=C(NC1CCN(Cc2cc(F)cc(F)c2)CC1)c1ccc(C(=O)N2CCC(Oc3ccc(F)cc3)CC2)cn1 [Compound 295, N-(1-(3,5-difluorobenzyl)piperidin-4-yl)-5-(4-(4-fluorophenoxy)piperidine-1-carbonyl)picolinamide]
EC50: < 500 nM

COc1ccc(OC2CCN(C(=O)c3ccc(C(=O)NC4CCN(Cc5cc(F)cc(F)c5)CC4)nc3)CC2)cc1 [Compound 296, N-(1-(3,5-difluorobenzyl)piperidin-4-yl)-5-(4-(4-methoxyphenoxy)piperidine-1-carbonyl)picolinamide]
EC50: < 500 nM

O=C(NC1CCN(Cc2cc(F)cc(F)c2)CC1)c1ccc(C(=O)N2CCC(Oc3ccc(F)c(F)c3)CC2)cn1 [Compound 297, N-(1-(3,5-difluorobenzyl)piperidin-4-yl)-5-(4-(3,4-difluorophenoxy)piperidine-1-carbonyl)picolinamide]
EC50: < 500 nM

O=C(NC1CCN(Cc2cc(F)cc(F)c2)CC1)c1ccc(C(=O)N2CCC(C(=O)c3ccc(F)c(F)c3)CC2)cn1 [Compound 298, 5-(4-(3,4-difluorobenzoyl)piperidine-1-carbonyl)-N-(1-(3,5-difluorobenzyl)piperidin-4-yl)picolinamide]
EC50: < 500 nM

O=C(N[C@H]1CC[C@@H](Oc2cc(F)cc(F)c2)CC1)c1ccc(C(=O)N2CCC(Oc3ccc(F)cc3)CC2)cn1 [Compound 299, N-((cis)-4-(3,5-difluorophenoxy)cyclohexyl)-5-(4-(4-fluorophenoxy)piperidine-1-carbonyl)picolinamide]
EC50: < 500 nM

COc1ccc(C(=O)C2CCN(C(=O)c3ccc(C(=O)N[C@H]4CC[C@@H](Oc5cc(F)cc(F)c5)CC4)nc3)CC2)cc1 [Compound 300, N-((cis)-4-(3,5-difluorophenoxy)cyclohexyl)-5-(4-(4-methoxybenzoyl)piperidine-1-carbonyl)picolinamide]
EC50: < 500 nM

N#Cc1ccc(CN2CCC(NC(=O)c3ccc(N4CCC(Oc5ccc(C(F)(F)F)cc5)CC4)cn3)CC2)cc1 [Compound 301, N-(1-(4-cyanobenzyl)piperidin-4-yl)-5-(4-(4-(trifluoromethyl)phenoxy)piperidin-1-yl)picolinamide]
EC50: < 500 nM

COc1ccc(C(=O)C2CCN(c3ccc(C(=O)NC4CCN(Cc5ccc(C#N)cc5)CC4)nc3)CC2)cc1 [Compound 302, N-(1-(4-cyanobenzyl)piperidin-4-yl)-5-(4-(4-methoxybenzoyl)piperidin-1-yl)picolinamide]
EC50: < 500 nM

N#Cc1ccc(OC2CCN(C(=O)c3ccc(C(=O)N[C@H]4CC[C@@H](Oc5ccc(F)cc5)CC4)nc3)CC2)cc1 [Compound 303, 5-(4-(4-cyanophenoxy)piperidine-1-carbonyl)-N-((cis)-4-(4-fluorophenoxy)cyclohexyl)picolinamide]
EC50: < 500 nM

O=C(N[C@H]1CC[C@@H](Oc2ccc(F)cc2)CC1)c1ccc(C(=O)N2CCC(C(=O)c3ccc(F)cc3)CC2)cn1 [Compound 304, 5-(4-(4-fluorobenzoyl)piperidine-1-carbonyl)-N-((cis)-4-(4-fluorophenoxy)cyclohexyl)picolinamide]
EC50: < 500 nM

COc1ccc(C(=O)C2CCN(C(=O)c3ccc(C(=O)NCCOc4ccc(F)cc4)nc3)CC2)cc1 [Compound 305, N-(2-(4-fluorophenoxy)ethyl)-5-(4-(4-methoxybenzoyl)piperidine-1-carbonyl)picolinamide]
EC50: < 500 nM

N#Cc1ccc(OC2CCN(C(=O)c3ccc(C(=O)NCCOc4ccc(F)cc4)nc3)CC2)cc1 [Compound 306, 5-(4-(4-cyanophenoxy)piperidine-1-carbonyl)-N-(2-(4-fluorophenoxy)ethyl)picolinamide]
EC50: < 500 nM

N#Cc1ccc(CN2CCC(NC(=O)c3ccc(C(=O)N4CC(OCc5ccc(F)cc5)C4)cn3)CC2)cc1 [Compound 307, N-(1-(4-cyanobenzyl)piperidin-4-yl)-5-(3-(4-fluorobenzyloxy)azetidine-1-carbonyl)picolinamide]
EC50: 500 to 1000 nM

O=C(NC1CCN(Cc2cc(F)cc(F)c2)CC1)c1ccc(C(=O)N2CC(OCc3ccc(F)cc3)C2)cn1 [Compound 308, N-(1-(3,5-difluorobenzyl)piperidin-4-yl)-5-(3-(4-fluorobenzyloxy)azetidine-1-carbonyl)picolinamide]
EC50: < 500 nM

COc1ccc(C(=O)C2CCN(C(=O)c3ccc(C(=O)NC4CCN(Cc5cc(F)cc(F)c5)CC4)cn3)CC2)cc1 [Compound 310, N-(1-(3,5-difluorobenzyl)piperidin-4-yl)-6-(4-(4-methoxybenzoyl)piperidine-1-carbonyl)nicotinamide]
EC50: < 500 nM

COc1ccc(C(=O)C2CCN(C(=O)c3ccc(C(=O)N[C@H]4CC[C@@H](Oc5ccc(F)cc5)CC4)nc3)CC2)cc1 [Compound 311, N-((cis)-4-(4-fluorophenoxy)cyclohexyl)-5-(4-(4-methoxybenzoyl)piperidine-1-carbonyl)picolinamide]
EC50: < 500 nM

O=C(N[C@H]1CC[C@@H](Oc2ccc(F)cc2)CC1)c1ccc(C(=O)N2CCC(Oc3ccc(F)cc3)CC2)cn1 [Compound 312, N-((cis)-4-(4-fluorophenoxy)cyclohexyl)-5-(4-(4-fluorophenoxy)piperidine-1-carbonyl)picolinamide]
EC50: < 500 nM

N#Cc1ccc(OC2CN(C(=O)c3ccc(C(=O)NC4CCN(Cc5cc(F)cc(F)c5)CC4)nc3)C2)cc1 [Compound 313, 5-(3-(4-cyanophenoxy)azetidine-1-carbonyl)-N-(1-(3,5-difluorobenzyl)piperidin-4-yl)picolinamide]
EC50: < 500 nM

N#Cc1ccc(-c2nnc3n2CCN(C(=O)c2ccc(C(=O)NC4CCN(Cc5cc(F)cc(F)c5)CC4)nc2)C3)cc1 [Compound 314, 5-(3-(4-cyanophenyl)-5,6,7,8-tetrahydro-[1,2,4]triazolo[4,3-a]pyrazine-7-carbonyl)-N-(1-(3,5-difluorobenzyl)piperidin-4-yl)picolinamide]
EC50: > 10000 nM

COc1ccc(C(=O)C2CCN(C(=O)c3ccc(C(=O)NC4CCC(Oc5ccc(C#N)cc5)CC4)cn3)CC2)cc1 (stereo not drawn) [Compound 315, N-((1s,4s)-4-(4-cyanophenoxy)cyclohexyl)-6-(4-(4-methoxybenzoyl)piperidine-1-carbonyl)nicotinamide]
EC50: < 500 nM

COc1ccc(C(=O)C2CCN(C(=O)c3ccc(C(=O)N[C@H]4CC[C@@H](Oc5ccc(F)cc5)CC4)cn3)CC2)cc1 [Compound 316, N-((cis)-4-(4-fluorophenoxy)cyclohexyl)-6-(4-(4-methoxybenzoyl)piperidine-1-carbonyl)nicotinamide]
EC50: < 500 nM

COc1ccc(C(=O)C2CCN(C(=O)c3ccc(C(=O)NC4CCN(Cc5ccc(F)cc5)CC4)cn3)CC2)cc1 [Compound 317, N-(1-(4-fluorobenzyl)piperidin-4-yl)-6-(4-(4-methoxybenzoyl)piperidine-1-carbonyl)nicotinamide]
EC50: < 500 nM

COc1ccc(CN2CCC(NC(=O)c3ccc(C(=O)N4CCC(C(=O)c5ccc(OC)cc5)CC4)nc3)CC2)cc1 [Compound 318, 6-(4-(4-methoxybenzoyl)piperidine-1-carbonyl)-N-(1-(4-methoxybenzyl)piperidin-4-yl) nicotinamide]
EC50: < 500 nM

COc1ccc(CN2CCC(NC(=O)c3ccc(C(=O)N4CCC(Oc5ccc(C#N)cc5)CC4)nc3)CC2)cc1 [Compound 319, 6-(4-(4-cyanophenoxy)piperidine-1-carbonyl)-N-(1-(4-methoxybenzyl)piperidin-4-yl) nicotinamide]
EC50: < 500 nM

N#Cc1ccc(OC2CCN(C(=O)c3ccc(C(=O)NC4CCN(Cc5ccc(F)cc5)CC4)cn3)CC2)cc1 [Compound 320, 6-(4-(4-cyanophenoxy)piperidine-1-carbonyl)-N-(1-(4-fluorobenzyl)piperidin-4-yl)nicotinamide]
EC50: < 500 nM

N#Cc1ccc(OC2CCN(C(=O)c3ccc(C(=O)N[C@H]4CC[C@@H](Oc5ccc(C#N)cc5)CC4)cn3)CC2)cc1 [Compound 321, N-((cis)-4-(4-cyanophenoxy)cyclohexyl)-6-(4-(4-cyanophenoxy)piperidine-1-carbonyl)nicotinamide]
EC50: < 500 nM

N#Cc1ccc(OC2CCN(C(=O)c3ccc(C(=O)NC4CCN(Cc5cc(F)cc(F)c5)CC4)cn3)CC2)cc1 [Compound 322, 6-(4-(4-cyanophenoxy)piperidine-1-carbonyl)-N-(1-(3,5-difluorobenzyl)piperidin-4-yl)nicotinamide]
EC50: < 500 nM

N#Cc1ccc(CN2CCC(NC(=O)c3ccc(C(=O)N4CCC(Oc5ccc(C#N)cc5)CC4)nc3)CC2)cc1 [Compound 323, N-(1-(4-cyanobenzyl)piperidin-4-yl)-6-(4-(4-cyanophenoxy)piperidine-1-carbonyl)nicotinamide]
EC50: < 500 nM

N#Cc1ccc(OC2CCN(C(=O)c3ccc(C(=O)N[C@H]4CC[C@@H](Oc5ccc(F)cc5)CC4)cn3)CC2)cc1 [Compound 324, 6-(4-(4-cyanophenoxy)piperidine-1-carbonyl)-N-((cis)-4-(4-fluorophenoxy)cyclohexyl)nicotinamide]
EC50: < 500 nM
